# Test results from EP4678638A1, “NEW E3 UBIQUITIN LIGASE LIGAND, PROTEIN DEGRADATION AGENT AND USE THEREOF” (priority 2023, dated 2024).
# Molecular target: T1, IRAK4 (Homo sapiens, UniProt Q9NWZ3)
# T1 construct: evaluate the effects of the compounds of the present disclosure on the expression of target proteins in cells; endogenous in cells; host or cells: hPBMC
# T1 sequence (Q9NWZ3 1-460): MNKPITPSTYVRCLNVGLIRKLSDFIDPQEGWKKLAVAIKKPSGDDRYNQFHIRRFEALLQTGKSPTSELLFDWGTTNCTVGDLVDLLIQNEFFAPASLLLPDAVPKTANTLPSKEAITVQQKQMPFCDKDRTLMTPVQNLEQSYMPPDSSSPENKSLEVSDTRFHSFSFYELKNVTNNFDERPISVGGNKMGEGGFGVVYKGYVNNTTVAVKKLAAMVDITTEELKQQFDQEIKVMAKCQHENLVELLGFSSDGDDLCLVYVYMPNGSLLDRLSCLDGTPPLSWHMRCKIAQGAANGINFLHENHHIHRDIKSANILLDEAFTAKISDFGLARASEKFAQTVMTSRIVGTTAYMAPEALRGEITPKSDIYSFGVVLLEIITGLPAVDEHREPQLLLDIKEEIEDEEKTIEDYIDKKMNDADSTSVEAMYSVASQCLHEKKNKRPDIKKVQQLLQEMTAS
# Assay: Western blot degradation of IRAK4 (hPBMC)
# Format: cell-based
# Details: Table D1
# Description: Conventional Western blot assay was performed to evaluate the effects of the compounds of the present disclosure on the expression of target proteins in cells.
# (1) Cell Seeding and Protein Harvesting: The selected cells were processed according to the cell seeding procedure and protein harvesting procedure in Table III-2. Table III-2 Cell Seeding and Protein Harvesting Procedures
# (2) To the collected supernatant, 5X SDS sample loading buffer was added, followed by denaturation at 95°C for 5 minutes. The denatured samples were then separated by SDS-PAGE electrophoresis on a polyacrylamide gel. Proteins were transferred to a nitrocellulose membrane (0.45 µm NC membrane), blocked with blocking buffer at room temperature for 1 hour, and subjected to antibody incubation and development procedures according to the antibody manufacturer's instructions (Cell Signaling Technology).
# Half-Maximal Degradation Concentration value (the drug concentration required for degrading proteins by 50%, abbreviated as DC50) reads method: comparing the grayscale values of Western blot bands from drug-treated samples with those from blank DMSO-treated controls, and identifying the drug concentration range at which the grayscale value is half that of the DMSO-treated control bands.
# DC50 values can be calculated using ImageJ software to measure grayscale values of Western blot bands from drug-treated samples. The concentration-response curve is fitted to estimate the drug concentration corresponding to half the grayscale value.
# Target protein remaining (%) refers to the percentage of target protein remaining in hPBMC cells after treatment with protein degrader compounds.
# Calculation method for target protein remaining (%): Use ImageJ software to measure grayscale values of Western blot bands from drug (protein degrader)-treated samples. The grayscale value of drug-treated bands is divided by that of internal control protein bands, and the resulting quotient is normalized to obtain the relative percentage of remaining target protein after protein degrader treatment.
# Target protein degradation rate (%) = 100% - target protein remaining (%).
row,SMILES,Degradation of substrate protein IRAK4 (substrate protein remaining %)
1,"O=C1CCC(Nc2cccc(CN3CCN(c4ccc5c(c4)nc(NC(=O)c4cccc(C(F)(F)F)c4)n5[C@H]4CC[C@@H](CO)CC4)CC3)c2)C(=O)N1 (some centres unmarked) [GT-04985, N-(5-(4-(3-((2,6-dioxopiperidin-3-yl)amino)benzyl)piperazin-1-yl)-1-((1s,4s)-4-(hydroxymethyl)cyclohexyl) -1H-benzo[d]imidazol-2-yl)-3-(trifluoromethyl)benzamide]",A (A is defined as 0% ≤ substrate protein remaining % ≤ 80%)
2,"O=C1CCN(c2ccc(CN3CCC(n4cc(NC(=O)c5cnn6ccc(N7C[C@H]8C[C@@H]7CO8)nc56)c(C(F)F)n4)CC3)cn2)C(=O)N1 [GT-05054, 5-((1R,4R)-2-oxa-5-azabicyclo[2.2.1]heptan-5-yl)-N-(3-(difluoromethyl)-1-(1-((6-(2,4-dioxotetrahydropyrimidin-1(2H)-yl)pyridin-3-yl)methyl)piperidin-4-yl)-1H-pyrazol-4-yl)pyrazolo[1,5-a]pyrimidine-3-carboxamide]",A (A is defined as 0% ≤ substrate protein remaining % ≤ 80%)
3,"O=C1CCN(c2cccc(CN3CCC(n4cc(NC(=O)c5coc(-c6ccnc(NCC(F)(F)F)c6)n5)c(C(F)F)n4)CC3)c2)C(=O)N1 [GT-05190, N-(3-(difluoromethyl)-1-(1-(3-(2,4-dioxotetrahydropyrimidin-1(2H)-yl)benzyl)piperidin-4-yl)-1H-pyrazol-4-yl)-2-(2-((2,2,2-trifluoroethyl)amino)pyridin-4-yl)oxazole-4-carboxamide]",A (A is defined as 0% ≤ substrate protein remaining % ≤ 80%)
4,"CC(C)(O)c1cc2nc(C3CCN(Cc4ccc(C5CCC(=O)NC5=O)cc4)CC3)oc2cc1NC(=O)c1cccc(C(F)(F)F)n1 (centres unmarked) [GT-05771, N-(2-(1-(4-(2,6-dioxopiperidin-3-yl)benzyl)piperidin-4-yl)-5-(2-hydroxypropan-2-yl)benzo[d]oxazol-6-yl)-6-(trifluoromethyl)picolinamide]",A (A is defined as 0% ≤ substrate protein remaining % ≤ 80%)
5,"Cc1cc(-c2nc(C(=O)Nc3cc4oc(N5CCN(Cc6ccc(N7CCC(=O)NC7=O)cc6)CC5)nc4nc3N3CC[C@@H](O)C3)co2)ccn1 [GT-05807, (R)-N-(2-(4-(4-(2,4-dioxotetrahydropyrimidin-1(2H)-yl)benzyl)piperazin-1-yl)-5-(3-hydroxypyrrolidin-1-yl)oxazolo[4,5-b]pyridin-6-yl)-2-(2-methylpyridin-4-yl)oxazole-4-carboxamide]",A (A is defined as 0% ≤ substrate protein remaining % ≤ 80%)
6,"CC(C)Nc1cc(-n2ccc3cc(C#N)cnc32)ncc1C(=O)NC1CCN(Cc2cc(N3CCC(=O)NC3=O)ncc2F)CC1 [GT-07408, 6-(5-cyano-1H-pyrrolo[2,3-b]pyridin-1-yl)-N-(1-((2-(2,4-dioxotetrahydropyrimidin-1(2H)-yl)-5-fluoropyridin-4-yl)methyl)piperidin-4-yl)-4-(isopropylamino)nicotinamide]",A (A is defined as 0% ≤ substrate protein remaining % ≤ 80%)
7,"CC(C)Nc1cc(-n2ccc3cc(C#N)cnc32)ncc1C(=O)NC1CCN(Cc2ccnc(N3CCC(=O)NC3=O)c2)CC1 [GT-07409, 6-(5-cyano-1H-pyrrolo[2,3-b]pyridin-1-yl)-N-(1-((2-(2,4-dioxotetrahydropyrimidin-1(2H)-yl)pyridin-4-yl)methyl)piperidin-4-yl)-4-(isopropylamino)nicotinamide]",A (A is defined as 0% ≤ substrate protein remaining % ≤ 80%)
8,"CC(C)Nc1cc(-n2ccc3cc(C#N)cnc32)ncc1C(=O)NC1CCN(Cc2cncc(N3CCC(=O)NC3=O)c2)CC1 [GT-07410, 6-(5-cyano-1H-pyrrolo[2,3-b]pyridin-1-yl)-N-(1-((5-(2,4-dioxotetrahydropyrimidin-1(2H)-yl)pyridin-3-yl)methyl)piperidin-4-yl)-4-(isopropylamino)nicotinamide]",A (A is defined as 0% ≤ substrate protein remaining % ≤ 80%)
9,"CC(C)Nc1cc(-n2ccc3cc(C#N)cnc32)ncc1C(=O)NC1CCN(Cc2ccc(C3CCC(=O)NC3=O)cn2)CC1 (centres unmarked) [GT-07411, 6-(5-cyano-1H-pyrrolo[2,3-b]pyridin-1-yl)-N-(1-((5-(2,6-dioxopiperidin-3-yl)pyridin-2-yl)methyl)piperidin-4-yl)-4-(isopropylamino)nicotinamide]",A (A is defined as 0% ≤ substrate protein remaining % ≤ 80%)
10,"CC(C)Nc1cc(-n2ccc3cc(C#N)cnc32)ncc1C(=O)NC1CCN(Cc2ccnc(C3CCC(=O)NC3=O)c2)CC1 (centres unmarked) [GT-07412, 6-(5-cyano-1H-pyrrolo[2,3-b]pyridin-1-yl)-N-(1-((2-(2,6-dioxopiperidin-3-yl)pyridin-4-yl)methyl)piperidin-4-yl)-4-(isopropylamino)nicotinamide]",A (A is defined as 0% ≤ substrate protein remaining % ≤ 80%)
11,"CC(C)Nc1cc(-n2ccc3cc(C#N)cnc32)ncc1C(=O)NC1CCN(Cc2cncc(C3CCC(=O)NC3=O)c2)CC1 (centres unmarked) [GT-07413, 6-(5-cyano-1H-pyrrolo[2,3-b]pyridin-1-yl)-N-(1-((5-(2,6-dioxopiperidin-3-yl)pyridin-3-yl)methyl)piperidin-4-yl)-4-(isopropylamino)nicotinamide]",A (A is defined as 0% ≤ substrate protein remaining % ≤ 80%)
12,"COc1cc2nn(C3CCN(Cc4cc(N5CCC(=O)NC5=O)ncc4F)CC3)cc2cc1NC(=O)c1cccc(C(F)(F)F)c1 [GT-07414, N-(2-(1-((2-(2,4-dioxotetrahydropyrimidin-1(2H)-yl)-5-fluoropyridin-4-yl)methyl)piperidin-4-yl)-6-methoxy-2H-indazol-5-yl)-3-(trifluoromethyl)benzamide]",A (A is defined as 0% ≤ substrate protein remaining % ≤ 80%)
13,"COc1cc2nn(C3CCN(Cc4ccnc(N5CCC(=O)NC5=O)c4)CC3)cc2cc1NC(=O)c1cccc(C(F)(F)F)c1 [GT-07415, N-(2-(1-((2-(2,4-dioxotetrahydropyrimidin-1(2H)-yl)pyridin-4-yl)methyl)piperidin-4-yl)-6-methoxy-2H-indazol-5-yl)-3-(trifluoromethyl)benzamide]",A (A is defined as 0% ≤ substrate protein remaining % ≤ 80%)
14,"COc1cc2nn(C3CCN(Cc4cncc(N5CCC(=O)NC5=O)c4)CC3)cc2cc1NC(=O)c1cccc(C(F)(F)F)c1 [GT-07416, N-(2-(1-((5-(2,4-dioxotetrahydropyrimidin-1(2H)-yl)pyridin-3-yl)methyl)piperidin-4-yl)-6-methoxy-2H-indazol-5-yl)-3-(trifluoromethyl)benzamide]",A (A is defined as 0% ≤ substrate protein remaining % ≤ 80%)
15,"COc1cc2nn(C3CCN(Cc4ccnc(C5CCC(=O)NC5=O)c4)CC3)cc2cc1NC(=O)c1cccc(C(F)(F)F)c1 (centres unmarked) [GT-07418, N-(2-(1-((2-(2,6-dioxopiperidin-3-yl)pyridin-4-yl)methyl)piperidin-4-yl)-6-methoxy-2H-indazol-5-yl)-3-(trifluoromethyl)benzamide]",A (A is defined as 0% ≤ substrate protein remaining % ≤ 80%)
16,"COc1cc2nn(C3CCN(Cc4ccnc(N5CCC(=O)NC5=O)c4)CC3)cc2cc1NC(=O)c1cccc(C(F)(F)F)n1 [GT-07532, N-(2-(1-((2-(2,4-dioxotetrahydropyrimidin-1(2H)-yl)pyridin-4-yl)methyl)piperidin-4-yl)-6-methoxy-2H-indazol-5-yl)-6-(trifluoromethyl)picolinamide]",A (A is defined as 0% ≤ substrate protein remaining % ≤ 80%)
17,"CC(C)Nc1cc(-n2ccc3cc(C#N)cnc32)ncc1C(=O)NC1CCN(Cc2cccnc2C2CCC(=O)NC2=O)CC1 (centres unmarked) [GT-07546, 6-(5-cyano-1H-pyrrolo[2,3-b]pyridin-1-yl)-N-(1-((2-(2,6-dioxopiperidin-3-yl)pyridin-3-yl)methyl)piperidin-4-yl)-4-(isopropylamino)nicotinamide]",A (A is defined as 0% ≤ substrate protein remaining % ≤ 80%)
